Experimental data taken from PubChem BioAssay AID1745844 (Carcinogenic Potency Database (CPDB), 2022).
The source made the active and inactive calls. No rule for the calls is given here.

Tested on: rodent lifetime carcinogenesis bioassay, tumor incidence TD50
Experiment: chronic cancer bioassays in animals – CPDB, compiled studies (AID 1745844)

CCCCCC(/C=C/C=C\CCCCCCCC(=O)OC)OO (centres undefined)
inactive: carcinogen call (rat, strain Wistar, males, by gavage, site: gastrointestinal tract, lesion: several types, types named in the paper, dosed 30 weeks, study length 87 weeks) negative | carcinogen call (rat, strain Wistar, males, by gavage, site: liver, lesion: one or several types, types not named, dosed 30 weeks, study length 87 weeks) negative

CCN(CC)C(=S)[S-].CCN(CC)C(=S)[S-].[Zn+2]
inactive: carcinogen call (mouse, strain B6AKF1, females, oral dosing, site: any site (literature study), lesion: several types, types named in the paper, dosed 76 weeks, study length 76 weeks) negative | carcinogen call (mouse, strain B6AKF1, females, oral dosing, site: liver, lesion: hepatoma, dosed 76 weeks, study length 76 weeks) negative | carcinogen call (mouse, strain B6AKF1, females, oral dosing, site: lung, lesion: adenoma, dosed 76 weeks, study length 76 weeks) negative | TD50 (mouse, strain B6AKF1, males, oral dosing, site: any site (literature study), lesion: several types, types named in the paper, dosed 76 weeks, study length 76 weeks) 86.7 mg/kg/day | TD50 (mouse, strain B6AKF1, males, oral dosing, site: liver, lesion: hepatoma, dosed 76 weeks, study length 76 weeks) 205 mg/kg/day | carcinogen call (mouse, strain B6AKF1, males, oral dosing, site: lung, lesion: adenoma, dosed 76 weeks, study length 76 weeks) negative | carcinogen call (mouse, strain B6C3F1, females, oral dosing, site: any site (literature study), lesion: one or several types, types not named, dosed 76 weeks, study length 76 weeks) negative | carcinogen call (mouse, strain B6C3F1, females, oral dosing, site: liver, lesion: hepatoma, dosed 76 weeks, study length 76 weeks) negative | carcinogen call (mouse, strain B6C3F1, females, oral dosing, site: lung, lesion: several types, types named in the paper, dosed 76 weeks, study length 76 weeks) negative | TD50 (mouse, strain B6C3F1, males, oral dosing, site: any site (literature study), lesion: several types, types named in the paper, dosed 76 weeks, study length 76 weeks) 28.5 mg/kg/day | carcinogen call (mouse, strain B6C3F1, males, oral dosing, site: liver, lesion: hepatoma, dosed 76 weeks, study length 76 weeks) negative | TD50 (mouse, strain B6C3F1, males, oral dosing, site: lung, lesion: adenoma, dosed 76 weeks, study length 76 weeks) 46.2 mg/kg/day

O=NN(CC(F)(F)F)CC(F)(F)F
inactive: TD50 (rat, strain Fischer 344, females, in drinking water, site: liver, lesion: malignant tumor, dosed 30 weeks, study length 130 weeks) 4.98 mg/kg/day | carcinogen call (rat, strain Sprague-Dawley, males, in drinking water, site: several sites, sites named in the paper, lesion: malignant tumor, dosed 30 weeks, study length 114 weeks) negative

C[C@H]1CCCC(=O)CCC/C=C/c2cc(O)cc(O)c2C(=O)O1
33.5 mg/kg/day: TD50 (rat, strain Fischer 344, females, in feed, site: liver, lesion: hepatocellular adenoma + hepatocellular carcinoma + neoplastic nodule, dosed 104 weeks, study length 104 weeks)
active: TD50 (mouse, strain B6C3F1, females, in feed, site: liver, lesion: hepatocellular adenoma + hepatocellular carcinoma, dosed 104 weeks, study length 105 weeks) 38.8 mg/kg/day | TD50 (mouse, strain B6C3F1, females, in feed, site: liver, lesion: hepatocellular adenoma, dosed 104 weeks, study length 105 weeks) 50.1 mg/kg/day | TD50 (mouse, strain B6C3F1, females, in feed, site: pituitary gland, lesion: adenoma, NOS + carcinoma, dosed 104 weeks, study length 105 weeks) 32.3 mg/kg/day | TD50 (mouse, strain B6C3F1, females, in feed, site: pituitary gland, lesion: adenoma, NOS, dosed 104 weeks, study length 105 weeks) 37.4 mg/kg/day | TD50 (mouse, strain B6C3F1, males, in feed, site: pituitary gland, lesion: adenoma + carcinoma, dosed 104 weeks, study length 105 weeks) 49.1 mg/kg/day | TD50 (mouse, strain B6C3F1, males, in feed, site: pituitary gland, lesion: adenoma, dosed 104 weeks, study length 105 weeks) 53.3 mg/kg/day
22 mg/kg/day: TD50 (mouse, strain B6C3F1, females, in feed, site: liver + pituitary gland, lesion: hepatocellular adenoma + hepatocellular carcinoma + adenoma, NOS + carcinoma, dosed 104 weeks, study length 105 weeks)
38.8 mg/kg/day: TD50 (mouse, strain B6C3F1, females, in feed, site: liver, lesion: hepatocellular adenoma + hepatocellular carcinoma + neoplastic nodule, dosed 104 weeks, study length 105 weeks)
17.9 mg/kg/day: TD50 (mouse, strain B6C3F1, females, in feed, site: any site (literature study), lesion: several types, types named in the paper, dosed 104 weeks, study length 105 weeks)
950 mg/kg/day: TD50 (rat, strain Fischer 344, males, in feed, site: liver, lesion: hepatocellular adenoma + hepatocellular carcinoma + neoplastic nodule, dosed 104 weeks, study length 104 weeks)
inactive: TD50 (rat, strain Fischer 344, females, in feed, site: any site (literature study), lesion: several types, types named in the paper, dosed 104 weeks, study length 104 weeks) 80.9 mg/kg/day | TD50 (rat, strain Fischer 344, males, in feed, site: any site (literature study), lesion: several types, types named in the paper, dosed 104 weeks, study length 104 weeks) 16.2 mg/kg/day

ClCOCCCCOCCl
inactive: carcinogen call (mouse, strain Ha/ICR, females, i.p., site: abdomen, lesion: sarcoma, dosed 81 weeks, study length 81 weeks) negative

Nc1ccccc1
88 mg/kg/day: TD50 (rat, strain Fischer 344, males, in feed, site: body cavities + multiple organs + spleen, lesion: mesothelioma, NOS + fibrosarcoma + hemangiosarcoma + sarcoma, NOS, dosed 103 weeks, study length 107 weeks)
active: TD50 (rat, strain Fischer 344, females, in feed, site: multiple organs + spleen, lesion: fibrosarcoma + sarcoma, NOS, dosed 103 weeks, study length 107 weeks) 1740 mg/kg/day | TD50 (rat, strain Fischer 344, males, in feed, site: body cavities + multiple organs + spleen, lesion: mesothelioma, NOS + fibrosarcoma + sarcoma, NOS, dosed 103 weeks, study length 107 weeks) 263 mg/kg/day | TD50 (rat, strain Fischer 344, males, in feed, site: body cavities + multiple organs + spleen, lesion: mesothelioma, NOS + hemangiosarcoma, dosed 103 weeks, study length 107 weeks) 146 mg/kg/day | TD50 (rat, strain Fischer 344, males, in feed, site: body cavities + multiple organs, lesion: mesothelioma, NOS + fibrosarcoma + sarcoma, NOS, dosed 103 weeks, study length 107 weeks) 572 mg/kg/day | TD50 (rat, strain Fischer 344, males, in feed, site: spleen, lesion: fibrosarcoma + sarcoma, NOS, dosed 103 weeks, study length 107 weeks) 451 mg/kg/day | TD50 (rat, strain Fischer 344, males, in feed, site: spleen, lesion: hemangiosarcoma, dosed 103 weeks, study length 107 weeks) 160 mg/kg/day
556 mg/kg/day: TD50 (rat, strain Fischer 344, males, in feed, site: adrenal gland, lesion: pheochromocytoma + pheochromocytoma, malignant, dosed 103 weeks, study length 107 weeks)
13000 mg/kg/day: TD50 (rat, strain Fischer 344, females, in feed, site: liver, lesion: hepatocellular adenoma + hepatocellular carcinoma + neoplastic nodule, dosed 103 weeks, study length 107 weeks)
8850 mg/kg/day: TD50 (mouse, strain B6C3F1, females, in feed, site: liver, lesion: hepatocellular adenoma + hepatocellular carcinoma + neoplastic nodule, dosed 103 weeks, study length 107 weeks)
inactive: TD50 (mouse, strain B6C3F1, females, in feed, site: any site (literature study), lesion: several types, types named in the paper, dosed 103 weeks, study length 107 weeks) 9150 mg/kg/day | carcinogen call (mouse, strain B6C3F1, males, in feed, site: any site (literature study), lesion: several types, types named in the paper, dosed 103 weeks, study length 107 weeks) negative
124 mg/kg/day: TD50 (rat, strain Fischer 344, males, in feed, site: any site (literature study), lesion: several types, types named in the paper, dosed 103 weeks, study length 107 weeks)

CC1=C[C@H]2O[C@@H]3[C@H](O)C[C@](C)([C@@]2(CO)[C@H](O)C1=O)[C@]31CO1
inactive: carcinogen call (mouse, strain B6C3F1, males, in feed, site: liver, lesion: hepatocellular adenoma, dosed 104 weeks, study length 104 weeks) negative | carcinogen call (mouse, strain B6C3F1, males, in feed, site: liver, lesion: hepatocellular carcinoma, dosed 104 weeks, study length 104 weeks) negative

O=C1OC2(c3ccccc31)c1cc(I)c(O)c(I)c1Oc1c2cc(I)c(O)c1I
17000 mg/kg/day: TD50 (mouse, strain Charles River CD1, males, in feed, site: any site (literature study), lesion: several types, types named in the paper, dosed 104 weeks, study length 104 weeks)
inactive: carcinogen call (mouse, strain Charles River CD1, females, in feed, site: any site (literature study), lesion: benign tumor, dosed 104 weeks, study length 104 weeks) negative | carcinogen call (mouse, strain Charles River CD1, females, in feed, site: any site (literature study), lesion: malignant tumor, dosed 104 weeks, study length 104 weeks) negative | carcinogen call (mouse, strain Charles River CD1, females, in feed, site: any site (literature study), lesion: several types, types named in the paper, dosed 104 weeks, study length 104 weeks) negative | TD50 (mouse, strain Charles River CD1, males, in feed, site: all sites, lesion: lymphocytic lymphoma, dosed 104 weeks, study length 104 weeks) 3140 mg/kg/day | TD50 (mouse, strain Charles River CD1, males, in feed, site: any site (literature study), lesion: benign tumor, dosed 104 weeks, study length 104 weeks) 25900 mg/kg/day | TD50 (mouse, strain Charles River CD1, males, in feed, site: any site (literature study), lesion: malignant tumor, dosed 104 weeks, study length 104 weeks) 87600 mg/kg/day | TD50 (rat, strain Osborne-Mendel, both sexes, by gavage, site: all sites, lesion: lymphosarcoma, dosed 85 weeks, study length 104 weeks) 122 mg/kg/day | carcinogen call (rat, strain Osborne-Mendel, both sexes, by gavage, site: any site (literature study), lesion: malignant tumor, dosed 85 weeks, study length 104 weeks) negative | carcinogen call (rat, strain Osborne-Mendel, both sexes, by gavage, site: liver, lesion: one or several types, types not named, dosed 85 weeks, study length 104 weeks) negative | TD50 (rat, strain Osborne-Mendel, both sexes, in feed, site: any site (literature study), lesion: malignant tumor, dosed 86 weeks, study length 104 weeks) 14100 mg/kg/day | TD50 (rat, strain Osborne-Mendel, both sexes, in feed, site: liver, lesion: hepatoma, dosed 86 weeks, study length 104 weeks) 84900 mg/kg/day | carcinogen call (rat, strain Osborne-Mendel, females, in feed, site: any site (literature study), lesion: several types, types named in the paper, dosed 104 weeks, study length 104 weeks) negative | TD50 (rat, strain Osborne-Mendel, males, in feed, site: any site (literature study), lesion: several types, types named in the paper, dosed 104 weeks, study length 104 weeks) 4810 mg/kg/day | carcinogen call (rat, strain Slc-Wistar, females, in feed, site: any site (literature study), lesion: several types, types named in the paper, dosed 52 weeks, study length 52 weeks) negative | carcinogen call (rat, strain Slc-Wistar, females, in feed, site: liver, lesion: one or several types, types not named, dosed 52 weeks, study length 52 weeks) negative | carcinogen call (rat, strain Slc-Wistar, males, in feed, site: any site (literature study), lesion: several types, types named in the paper, dosed 52 weeks, study length 52 weeks) negative | carcinogen call (rat, strain Slc-Wistar, males, in feed, site: liver, lesion: one or several types, types not named, dosed 52 weeks, study length 52 weeks) negative | carcinogen call (rat, strain Sprague-Dawley, females, in feed, site: any site (literature study), lesion: one or several types, types not named, dosed 52 weeks, study length 52 weeks) negative | carcinogen call (rat, strain Sprague-Dawley, females, in feed, site: liver, lesion: one or several types, types not named, dosed 52 weeks, study length 52 weeks) negative

O=S1(=O)CCCO1
active: TD50 (rat, strain Charles River CD (Sprague-Dawley), females, by gavage, site: all sites, lesion: granulocytic leukemia, dosed 46 weeks, study length 60 weeks) 18.6 mg/kg/day | TD50 (rat, strain Charles River CD (Sprague-Dawley), females, by gavage, site: cerebellum, lesion: malignant glioma, dosed 46 weeks, study length 60 weeks) 7.2 mg/kg/day | TD50 (rat, strain Charles River CD (Sprague-Dawley), females, by gavage, site: cerebrum, lesion: malignant glioma, dosed 46 weeks, study length 60 weeks) 4.06 mg/kg/day | TD50 (rat, strain Charles River CD (Sprague-Dawley), females, by gavage, site: mammary gland, lesion: adenocarcinoma, dosed 46 weeks, study length 60 weeks) 4.13 mg/kg/day | TD50 (rat, strain Charles River CD (Sprague-Dawley), females, by gavage, site: small intestine, lesion: adenocarcinoma, dosed 46 weeks, study length 60 weeks) 31.7 mg/kg/day | TD50 (rat, strain Charles River CD (Sprague-Dawley), males, by gavage, site: all sites, lesion: granulocytic leukemia, dosed 46 weeks, study length 60 weeks) 23.5 mg/kg/day | TD50 (rat, strain Charles River CD (Sprague-Dawley), males, by gavage, site: cerebellum, lesion: malignant glioma, dosed 46 weeks, study length 60 weeks) 4.75 mg/kg/day | TD50 (rat, strain Charles River CD (Sprague-Dawley), males, by gavage, site: cerebrum, lesion: malignant glioma, dosed 46 weeks, study length 60 weeks) 3.64 mg/kg/day | TD50 (rat, strain Charles River CD (Sprague-Dawley), males, by gavage, site: small intestine, lesion: adenocarcinoma, dosed 46 weeks, study length 60 weeks) 15.4 mg/kg/day
